Assay results: PMC7593776 (RSC Medicinal Chemistry, 2020)

Target: ERK2 (Homo sapiens, UniProt P28482)
Assay: Z′-LYTE kinase inhibition assay
Type: biochemical
Settings: ATP concentration 100 μM

Sequence of ERK2 (P28482 whole entry): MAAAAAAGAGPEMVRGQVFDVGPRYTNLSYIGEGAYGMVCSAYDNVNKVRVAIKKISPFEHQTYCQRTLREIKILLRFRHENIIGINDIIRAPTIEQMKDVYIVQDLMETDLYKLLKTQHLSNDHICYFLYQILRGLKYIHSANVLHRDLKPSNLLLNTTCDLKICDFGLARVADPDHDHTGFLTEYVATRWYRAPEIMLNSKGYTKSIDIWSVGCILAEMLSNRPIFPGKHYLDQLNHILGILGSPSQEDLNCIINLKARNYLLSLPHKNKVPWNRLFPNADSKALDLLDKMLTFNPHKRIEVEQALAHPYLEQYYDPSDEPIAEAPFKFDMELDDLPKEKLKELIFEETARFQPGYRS

Nc1cccc2cc[nH]c(=O)c12 [MR1]
inhibition (in words): not inhibited
